{
  "source": "patent US8609391B2",
  "about": "“Mannose-6-phosphate isomerase, mutant thereof, and use thereof” (Konkuk University Industrial Cooperation Corp., priority 2009, dated 2013)",
  "molecules": {"B1": {"name": "Thermus thermophilus mannose-6-phosphate isomerase (Sequence No. 1) variant R142N (gene SEQ ID NO: 5) (Thermus thermophilus HB8; R142N) (protein)", "chain": "MRRLEPKPVARIWGGSGLGFGPGIGEVWLAEAPLLVKLLDPADWLSVQVHPPHEYALRVEGKPGKYEAWYVLSPGELVYGLARPVSREELRERALAGTLEEVLRRVRVEPGQVLYLPAGTIHALGPGVRVYEVQTPSDLTYNLYDYGRPRELHLEKALDVAILEPTPLTLPPPEPVLGGERLLSTPFFDLLRYPLAGKLWVRAEGPTLLTLLEGEARLKEEVLRPPATLLLEPGEEAVFRGEGLWLAALAKEGA", "notes": "site-directed mutant"}, "B2": {"name": "Thermus thermophilus mannose-6-phosphate isomerase, wild type, Sequence No. 1 (gene SEQ ID NO: 3) (Thermus thermophilus HB8) (protein)", "chain": "B1 chain with N142R"}},
  "key": {"[1]": {"target": "T1, Thermus thermophilus mannose-6-phosphate isomerase (Sequence No. 1) variant R142A (Thermus thermophilus, UniProt Q5SIM4, R142A)", "T1 construct": "site-directed mutant", "T1 sequence (Q5SIM4 entry or part of it R142A)": "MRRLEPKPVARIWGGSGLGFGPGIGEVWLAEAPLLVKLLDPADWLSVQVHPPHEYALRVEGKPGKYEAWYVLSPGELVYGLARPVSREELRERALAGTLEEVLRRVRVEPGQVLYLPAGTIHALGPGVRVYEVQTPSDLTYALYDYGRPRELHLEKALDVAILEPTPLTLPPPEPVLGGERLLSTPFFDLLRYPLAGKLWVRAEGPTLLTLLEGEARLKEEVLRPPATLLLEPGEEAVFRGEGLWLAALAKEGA", "assay": "Kinetic parameters to L-ribulose, R142A mutant", "type": "biochemical", "settings": "75° C., pH 7.0, 0.5 mM Cu^2+", "method": "(§1) The experiment for measuring and comparing specific activities of the mannose-6-isomerase and mutant enzyme to L-ribulose was performed.\n(§2) The enzyme reaction was performed at 75° C. for 5 minutes using 50 mM PIPES buffer solution (pH 7.0) including 10 mM ribulose and the metal ion of 0.5 mM Cu^2+ and then again stopped by adding a final concentration of 200 mM hydrogen chloride. In the present invention, the enzyme activity was measured by using […] as a substrate, and one unit of the enzyme activity was defined as the amount of enzyme required to produce 1 nmole of L-Ribose per 1 minute at 75° C. and pH 7.0 for a smooth comparative analysis. In addition, when measuring the enzyme activity, the analysis of the concentrations of ribose and ribulose, and other sugars was performed by using Bio liquid chromatography (Bio-LC) system (DIONEX ICS-3000, Sunnylvale, Calif., USA) installed with CarboPacPA and an electrochemical detector. At this point, 200 mM sodium hydroxide (NaOH) was passed through the CarboPacPA column at the rate of 1 ml/min at 30° C."}, "[2]": {"target": "T2, Thermus thermophilus mannose-6-phosphate isomerase (Sequence No. 1) variant R142Y (Thermus thermophilus, UniProt Q5SIM4, R142Y)", "T2 construct": "site-directed mutant", "T2 sequence (Q5SIM4 entry or part of it R142Y)": "as the sequence (Q5SIM4 entry or part of it R142A) above, with A142Y counted along it", "assay": "Kinetic parameters to L-ribulose, R142Y mutant", "type": "biochemical", "settings": "75° C., pH 7.0, 0.5 mM Cu^2+", "method": "as §1, §2"}, "[3]": {"target": "T3, Thermus thermophilus mannose-6-phosphate isomerase (Sequence No. 1) variant R142E (Thermus thermophilus, UniProt Q5SIM4, R142E)", "T3 construct": "site-directed mutant", "T3 sequence (Q5SIM4 entry or part of it R142E)": "as the sequence (Q5SIM4 entry or part of it R142A) above, with A142E counted along it", "assay": "Kinetic parameters to L-ribulose, R142E mutant", "type": "biochemical", "settings": "75° C., pH 7.0, 0.5 mM Cu^2+", "method": "as §1, §2"}, "[4]": {"target": "T4, Thermus thermophilus mannose-6-phosphate isomerase (Sequence No. 1) variant R142K (Thermus thermophilus, UniProt Q5SIM4, R142K)", "T4 construct": "site-directed mutant", "T4 sequence (Q5SIM4 entry or part of it R142K)": "as the sequence (Q5SIM4 entry or part of it R142A) above, with A142K counted along it", "assay": "Kinetic parameters to L-ribulose, R142K mutant", "type": "biochemical", "settings": "75° C., pH 7.0, 0.5 mM Cu^2+", "method": "as §1, §2"}, "[5]": {"target": "T5, Thermus thermophilus mannose-6-phosphate isomerase (Sequence No. 1) variant R142N (gene SEQ ID NO: 5) (Thermus thermophilus, UniProt Q5SIM4, R142N)", "T5 construct": "site-directed mutant", "T5 sequence (Q5SIM4 1-254 R142N)": "B1 chain", "assay": "Kinetic parameters to L-ribulose, R142N mutant", "type": "biochemical", "settings": "75° C., pH 7.0, 0.5 mM Cu^2+", "method": "as §1, §2"}, "[6]": {"target": "T6, Thermus thermophilus mannose-6-phosphate isomerase, wild type, Sequence No. 1 (gene SEQ ID NO: 3) (Thermus thermophilus, UniProt Q5SIM4)", "T6 sequence (Q5SIM4 1-254)": "B1 chain with N142R", "assay": "Kinetic parameters to L-ribulose, wild enzyme", "type": "biochemical", "settings": "75° C., pH 7.0, 0.5 mM Cu^2+", "method": "as §1, §2"}, "[7]": {"substrate": "O=C(CO)[C@@H](O)[C@@H](O)CO", "assay": "Kinetic parameters to L-ribulose, R142N mutant", "type": "biochemical, Thermus thermophilus", "settings": "other: 75° C., pH 7.0, 0.5 mM Cu^2+", "method": "as §1, §2"}, "[8]": {"substrate": "O=C(CO)[C@@H](O)[C@@H](O)CO", "assay": "Kinetic parameters to L-ribulose, wild enzyme", "type": "biochemical, Thermus thermophilus", "settings": "other: 75° C., pH 7.0, 0.5 mM Cu^2+", "method": "as §1, §2"}},
  "note": "Substitutions are numbered along the chain they refer to. Names may count otherwise.",
  "data": [
    {"molecule": "O=C(CO)[C@@H](O)[C@@H](O)CO", "note": "[L-ribulose]", "values": [
      {"measurement": "kcat", "setting": "[1]", "value": "64873 ± 908", "unit": "s⁻¹"},
      {"measurement": "kcat/Km", "setting": "[1]", "value": "353 ± 11", "unit": "mM⁻¹ s⁻¹"},
      {"measurement": "kcat", "setting": "[2]", "value": "56178 ± 865", "unit": "s⁻¹"},
      {"measurement": "kcat/Km", "setting": "[2]", "value": "182 ± 5", "unit": "mM⁻¹ s⁻¹"},
      {"measurement": "kcat", "setting": "[3]", "value": "32666 ± 536", "unit": "s⁻¹"},
      {"measurement": "kcat/Km", "setting": "[3]", "value": "216 ± 8", "unit": "mM⁻¹ s⁻¹"},
      {"measurement": "kcat", "setting": "[4]", "value": "68877 ± 964", "unit": "s⁻¹"},
      {"measurement": "kcat/Km", "setting": "[4]", "value": "302 ± 9", "unit": "mM⁻¹ s⁻¹"},
      {"measurement": "kcat", "setting": "[5]", "value": "81063 ± 1329", "unit": "s⁻¹"},
      {"measurement": "kcat/Km", "setting": "[5]", "value": "579 ± 20", "unit": "mM⁻¹ s⁻¹"},
      {"measurement": "increase of catalytic efficiency as compared to the wild enzyme", "setting": "[5]; ratio R142N / wild", "value": 1.5, "unit": "fold"},
      {"measurement": "kcat", "setting": "[6]", "value": "50644 ± 709", "unit": "s⁻¹"},
      {"measurement": "kcat/Km", "setting": "[6]", "value": "374 ± 11", "unit": "mM⁻¹ s⁻¹"}
    ]},
    {"molecule": "B1", "values": [
      {"measurement": "kcat/Km", "setting": "[7]", "value": 579, "unit": "mM⁻¹ s⁻¹"}
    ]},
    {"molecule": "B2", "values": [
      {"measurement": "kcat/Km", "setting": "[8]", "value": 374, "unit": "mM⁻¹ s⁻¹"}
    ]}
  ]
}
